pIC50: −log10 of the molar value. Starred links: 1 amine or outer side, 2 acyl side, 3 side chain; linkers in the order of their positions; H or OH if unused. Positions of bridges follow the written chain, without caps; N, C: chain ends. Non-standard residues stand in square brackets, D forms with d. Residues, ends and D or L forms follow the SMILES beside them. *: point of attachment. X29 = O=C(O)CCCCCCCCCCCCCCCCC(=O)N[C@H](CCC(=O)NCCCC[C@@H](NC(=O)NCC(=O)[C@H](CSCC(=O)[*:1])N[*:2])C(=O)O)C(=O)O; εLys(α-Octadecanedioyl) = O=C(O)CCCCCCCCCCCCCCCCC(=O)N[C@@H](CCCCN*)C(=O)O; Dap(Nα-HOOC(CH2)16CO)OH = O=C(O)CCCCCCCCCCCCCCCCC(=O)N[C@@H](CN*)C(=O)O; X6 = O=C(O)CCCCCCCCCCCCCCCCC(=O)N[C@@H](CCC(=O)NCCCOCCOCCOCCCN*)C(=O)O; Trp(1-CH2COOH) = N[C@@H](Cc1cn(CC(=O)O)c2ccccc12)C(=O)O; X9 = O=C(O)CCCCCCCCCCCCCCCCC(=O)N[C@@H](CCN*)C(=O)O; Phe(3,4,5-F3) = N[C@@H](Cc1cc(F)c(F)c(F)c1)C(=O)O; Phe(4-F) = N[C@@H](Cc1ccc(F)cc1)C(=O)O; d(cisHyp) = O=C(O)[C@H]1C[C@@H](O)CN1; Gly(octyl) = CCCCCCCC[C@H](N)C(=O)O; Hyp = O=C(O)[C@@H]1C[C@@H](O)CN1; NMeF = CN[C@@H](Cc1ccccc1)C(=O)O; NMeE = CN[C@@H](CCC(=O)O)C(=O)O; Undecanoyl = CCCCCCCCCCC(=O)*; NMeNle = CCCC[C@H](NC)C(=O)O; Pip = O=C(O)[C@@H]1CCCCN1; NMeA = CN[C@@H](C)C(=O)O; Pra = C#CC[C@H](N)C(=O)O; Dab = NCC[C@H](N)C(=O)O; Dap = NC[C@H](N)C(=O)O
Molecular target: T1, PD-L1 (Homo sapiens, UniProt Q9NZQ7)
T1 construct: hPDL1(19-239)-TVMV-His; made in house; host or cells: HEK293T
T1 sequence (Q9NZQ7 with tags, fused parts or gaps): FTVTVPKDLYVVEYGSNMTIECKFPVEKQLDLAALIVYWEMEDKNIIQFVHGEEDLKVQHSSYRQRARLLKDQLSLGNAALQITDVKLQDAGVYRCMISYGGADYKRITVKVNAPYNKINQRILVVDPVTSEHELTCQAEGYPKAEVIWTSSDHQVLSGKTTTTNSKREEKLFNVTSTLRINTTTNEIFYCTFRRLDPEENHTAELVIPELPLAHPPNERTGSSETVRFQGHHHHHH
Test: PD-1/PD-L1 Homogenous Time-Resolved Fluorescence (HTRF) binding assay (PD-1-Ig/PD-L1-His)
Conditions: inhibition of PD-1-Ig binding to PD-L1-TVMV-His; value given as number; read-out: HTRF IC50
Outline: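 Inhibitors pre-incubated 15 min with PD-L1-His (10 nM final), then PD-1-Ig (20 nM final) added for 15 min in dPBS/0.1% BSA/0.05% Tween-20. Eu-cryptate anti-Ig (1 nM) and APC anti-His (20 nM) added, 30 min equilibration, 665/620 nm HTRF ratio read.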

Row | Compound | pIC50
1 | CCCCCCCCCCC(=O)NCCCC[C@H](NC(=O)[C@H](CC(=O)O)NC(=O)CNC(=O)[C@@H]1CSCC(=O)N[C@@H](Cc2ccc(O)cc2)C(=O)N(C)[C@@H](C)C(=O)N[C@@H](CC(N)=O)C(=O)N2CCC[C@H]2C(=O)N[C@@H](Cc2cnc[nH]2)C(=O)N[C@@H](CCC(=O)O)C(=O)N2C[C@H](O)C[C@H]2C(=O)N[C@@H](Cc2c[nH]c3ccccc23)C(=O)N[C@@H](CO)C(=O)N[C@@H](Cc2c[nH]c3ccccc23)C(=O)N(C)[C@@H](CCCC)C(=O)N(C)[C@@H](CCCC)C(=O)N[C@@H](CC(C)C)C(=O)N1)C(N)=O [Example 11009] ({CH2CO}-Y[NMeA]NPHE[Hyp]WSW[NMeNle][NMeNle]LCGDK(Undecanoyl)-NH2; thioether N-14) | 7.04

Same assay, conditions: inhibition of PD-1-Ig binding to PD-L1-TVMV-His; value given as range class; read-out: HTRF IC50

Row | Compound | pIC50
2 | CCCC[C@H]1C(=O)N(C)[C@@H](CCCC)C(=O)N[C@@H](CC(C)C)C(=O)N[C@H](C(=O)NCC(=O)NCC(=O)N[C@@H](Cc2cn(CC[C@H](NC(=O)CCCCCCCCCCCCCCCCC(=O)O)C(=O)O)nn2)C(=O)O)CSCC(=O)N[C@@H](Cc2ccc(O)cc2)C(=O)N(C)[C@@H](C)C(=O)N[C@@H](CC(N)=O)C(=O)N2CCC[C@H]2C(=O)N[C@@H](CN)C(=O)N[C@@H](CC(C)C)C(=O)N2C[C@H](O)C[C@H]2C(=O)N[C@@H](Cc2c[nH]c3ccccc23)C(=O)N[C@@H](CCN)C(=O)N[C@@H](Cc2cn(CC(=O)O)c3ccccc23)C(=O)N1C [Example 13122] | 5.80 to 7.00
3 | CCCC[C@H]1C(=O)N(C)[C@@H](CCCC)C(=O)N[C@@H](CC(C)C)C(=O)N[C@H](C(=O)CNC(=O)N[C@H](CCCCNC(=O)CC[C@@H](NC(=O)CCCCCCCCCCCCCCCCC(=O)O)C(=O)O)C(=O)O)CSCC(=O)N[C@@H](Cc2ccc(O)cc2)C(=O)N(C)[C@@H](C)C(=O)N[C@@H](CC(N)=O)C(=O)N2CCC[C@H]2C(=O)N[C@@H](CN)C(=O)N[C@@H](CC(C)C)C(=O)N2C[C@H](O)C[C@H]2C(=O)N[C@@H](Cc2c[nH]c3ccccc23)C(=O)N[C@@H](CCN)C(=O)N[C@@H](Cc2cn(CC(=O)O)c3ccccc23)C(=O)N1C [Example 11134] (Y[NMeA]NP[Dap]L[Hyp]W[Dab][Trp(1-CH2COOH)][NMeNle][NMeNle]L; linker N-C via X29) | 7.00 to 8.00
4 | CCCC[C@H]1C(=O)N(C)[C@@H](CCCC)C(=O)N[C@@H](CC(C)C)C(=O)N[C@H](C(=O)NCC(=O)N[C@@H](CCC(=O)NCCCC[C@H](NC(=O)CCCCCCCCCCCCCCCCC(=O)O)C(=O)O)C(=O)O)CSCC(=O)N[C@@H](Cc2ccc(O)cc2)C(=O)N(C)[C@@H](C)C(=O)N[C@@H](CC(N)=O)C(=O)N2CCC[C@H]2C(=O)N[C@@H](CN)C(=O)N[C@@H](CC(C)C)C(=O)N2C[C@H](O)C[C@H]2C(=O)N[C@@H](Cc2c[nH]c3ccccc23)C(=O)N[C@@H](CCN)C(=O)N[C@@H](Cc2cn(CC(=O)O)c3ccccc23)C(=O)N1C [Example 11177] ({CH2CO}-Y[NMeA]NP[Dap]L[Hyp]W[Dab][Trp(1-CH2COOH)][NMeNle][NMeNle]LCGE(εLys(α-Octadecanedioyl))-OH; thioether N-14) | 5.80 to 7.00
5 | C#CC[C@H](NC(=O)CNC(=O)[C@@H]1CSCC(=O)N[C@@H](Cc2ccc(O)cc2)C(=O)N(C)[C@@H](C)C(=O)N[C@@H](CC(N)=O)C(=O)N2CCC[C@H]2C(=O)N[C@@H](CN)C(=O)N[C@@H](CC(C)C)C(=O)N2C[C@H](O)C[C@H]2C(=O)N[C@@H](Cc2c[nH]c3ccccc23)C(=O)N[C@@H](CCN)C(=O)N[C@@H](Cc2cn(CC(=O)O)c3ccccc23)C(=O)N(C)[C@@H](CCCC)C(=O)N(C)[C@@H](CCCC)C(=O)N[C@@H](CC(C)C)C(=O)N1)C(=O)N[C@@H](CCC(=O)NCCCOCCOCCOCCCNC(=O)CC[C@H](NC(=O)CCCCCCCCCCCCCCCCC(=O)O)C(=O)O)C(=O)O [Example 11267] ({CH2CO}-Y[NMeA]NP[Dap]L[Hyp]W[Dab][Trp(1-CH2COOH)][NMeNle][NMeNle]LCG[Pra]E(X6)-OH; thioether N-14) | 7.00 to 8.00
6 | CCCC[C@H]1C(=O)N(C)[C@@H](CCCC)C(=O)N[C@@H](CCC(=O)O)C(=O)N[C@H](C(=O)NCC(=O)N[C@@H](Cc2cn(CC[C@H](NC(=O)CCCCCCCCCCCCCCC(=O)O)C(=O)O)nn2)C(=O)NCC(N)=O)CSCC(=O)N[C@@H](Cc2ccc(O)cc2)C(=O)N(C)[C@@H](C)C(=O)N[C@@H](CC(=O)O)C(=O)N2CCC[C@H]2C(=O)N[C@@H](Cc2c[nH]cn2)C(=O)N[C@@H](CCC(N)=O)C(=O)N2C[C@H](O)C[C@H]2C(=O)N[C@@H](Cc2c[nH]c3ccccc23)C(=O)N[C@@H](CO)C(=O)N[C@@H](Cc2c[nH]c3ccccc23)C(=O)N1C [Example 14069] | 7.00 to 8.00
7 | CCCC[C@H]1C(=O)N(C)[C@@H](CCCC)C(=O)N[C@@H](CC(C)C)C(=O)N[C@H](C(=O)NCC(=O)N[C@@H](CC(=O)NCC[C@H](NC(=O)CCCCCCCCCCCCCCCCC(=O)O)C(=O)O)C(=O)O)CSCC(=O)N[C@@H](Cc2ccc(F)cc2)C(=O)N2CCCC[C@H]2C(=O)N[C@@H](CC(=O)O)C(=O)N2CCC[C@H]2C(=O)N[C@@H](CN)C(=O)N[C@@H](CC(C)C)C(=O)N2C[C@H](O)C[C@H]2C(=O)N[C@@H](Cc2c[nH]c3ccccc23)C(=O)N[C@@H](CCN)C(=O)N[C@@H](Cc2cn(CC(=O)O)c3ccccc23)C(=O)N1C [Example 13147] ({CH2CO}-[Phe(4-F)][Pip]DP[Dap]L[Hyp]W[Dab][Trp(1-CH2COOH)][NMeNle][NMeNle]LCGD(X9)-OH; thioether N-14) | 5.80 to 7.00
8 | CCCC[C@H]1C(=O)N(C)[C@@H](CCCC)C(=O)N[C@@H](CCC(=O)O)C(=O)N[C@H](C(=O)NCC(=O)N[C@@H](Cc2cn(CC[C@H](NC(=O)CCCCCCCCCCCCCCCCC(=O)O)C(=O)O)nn2)C(=O)O)CSCC(=O)N[C@@H](Cc2ccc(O)cc2)C(=O)N(C)[C@@H](C)C(=O)N[C@@H](CC(N)=O)C(=O)N2CCC[C@H]2C(=O)N[C@@H](CN)C(=O)N[C@@H](CC(C)C)C(=O)N2C[C@H](O)C[C@H]2C(=O)N[C@@H](Cc2c[nH]c3ccccc23)C(=O)N[C@@H](CCN)C(=O)N[C@@H](Cc2cn(CC(=O)O)c3ccccc23)C(=O)N1C [Example 13125] | 7.00 to 8.00
9 | CCCCCCCC[C@H](NC(=O)CNC(=O)CNC(=O)CNC(=O)[C@@H]1CSCC(=O)N[C@@H](Cc2ccc(O)cc2)C(=O)N(C)[C@@H](C)C(=O)N[C@@H](CC(N)=O)C(=O)N2CCC[C@H]2C(=O)N[C@@H](CN)C(=O)N[C@@H](CC(C)C)C(=O)N2C[C@H](O)C[C@H]2C(=O)N[C@@H](Cc2c[nH]c3ccccc23)C(=O)N[C@@H](CCN)C(=O)N[C@@H](Cc2cn(CC(=O)O)c3ccccc23)C(=O)N(C)[C@@H](CCCC)C(=O)N(C)[C@@H](CCCC)C(=O)N[C@@H](CC(C)C)C(=O)N1)C(=O)O [Example 11103] ({CH2CO}-Y[NMeA]NP[Dap]L[Hyp]W[Dab][Trp(1-CH2COOH)][NMeNle][NMeNle]LCGGG[Gly(octyl)]-OH; thioether N-14) | 7.00 to 8.00

The remaining lines, values ahead:

Row | pIC50 | Compound
10 | 8.00 to 9.52 | C#CC[C@H](NC(=O)[C@@H]1CSCC(=O)N[C@@H](Cc2ccc(O)cc2)C(=O)N(C)[C@@H](C)C(=O)N[C@@H](CC(N)=O)C(=O)N2CCC[C@H]2C(=O)N[C@@H](CN)C(=O)N[C@@H](CC(C)C)C(=O)N2C[C@H](O)C[C@H]2C(=O)N[C@@H](Cc2c[nH]c3ccccc23)C(=O)N[C@@H](CCN)C(=O)N[C@@H](Cc2cn(CC(=O)O)c3ccccc23)C(=O)N(C)[C@@H](CCCC)C(=O)N(C)[C@@H](CCCC)C(=O)N[C@@H](CC(C)C)C(=O)N1)C(=O)O [INT130AF] ({CH2CO}-Y[NMeA]NP[Dap]L[Hyp]W[Dab][Trp(1-CH2COOH)][NMeNle][NMeNle]LC[Pra]-OH; thioether N-14)
11 | 7.00 to 8.00 | CCCC[C@H]1C(=O)N(C)[C@@H](CCCC)C(=O)N[C@@H](CC(C)C)C(=O)N[C@H](C(=O)NCC(=O)N[C@@H](CC(=O)NC[C@H](NC(=O)CCCCCCCCCCCCCCCCC(=O)O)C(=O)O)C(=O)O)CSCC(=O)N[C@@H](Cc2ccc(O)cc2)C(=O)N(C)[C@@H](C)C(=O)N[C@@H](CC(N)=O)C(=O)N2CCC[C@H]2C(=O)N[C@@H](CN)C(=O)N[C@@H](CC(C)C)C(=O)N2C[C@H](O)C[C@H]2C(=O)N[C@@H](Cc2c[nH]c3ccccc23)C(=O)N[C@@H](CCN)C(=O)N[C@@H](Cc2cn(CC(=O)O)c3ccccc23)C(=O)N1C [Example 11172] ({CH2CO}-Y[NMeA]NP[Dap]L[Hyp]W[Dab][Trp(1-CH2COOH)][NMeNle][NMeNle]LCGD(Dap(Nα-HOOC(CH2)16CO)OH)-OH; thioether N-14)
12 | 8.00 to 9.52 | CCCC[C@H]1C(=O)N2C[C@H](O)C[C@@H]2C(=O)N[C@@H](CC(=O)O)C(=O)N[C@@H](C(C)C)C(=O)N(C)[C@@H](Cc2ccccc2)C(=O)N[C@@H](Cc2ccc(O)cc2)C(=O)N(C)[C@@H](CCC(=O)O)C(=O)N[C@@H](Cc2c[nH]c3ccccc23)C(=O)N[C@@H](Cc2ccc(O)cc2)C(=O)N[C@@H](CC(C)C)C(=O)N[C@H](C(=O)NCC(=O)NCC(=O)NCC(=O)N[C@@H](CCCCN)C(N)=O)CSCC(=O)N[C@@H](Cc2cc(F)c(F)c(F)c2)C(=O)N(C)[C@@H](Cc2ccccc2)C(=O)N1C [Example 3214] ({CH2CO}-[Phe(3,4,5-F3)][NMeF][NMeNle][d(cisHyp)]DV[NMeF]Y[NMeE]WYLCGGGK-NH2; thioether N-13)
13 | 8.00 to 9.52 | C#CC[C@H](NC(=O)CNC(=O)[C@@H]1CSCC(=O)N[C@@H](Cc2ccc(O)cc2)C(=O)N2CCCC[C@H]2C(=O)N[C@@H](CC(N)=O)C(=O)N2CCC[C@H]2C(=O)N[C@@H](CN)C(=O)N[C@@H](CC(C)C)C(=O)N2C[C@H](O)C[C@H]2C(=O)N[C@@H](Cc2c[nH]c3ccccc23)C(=O)N[C@@H](CCN)C(=O)N[C@@H](Cc2cn(CC(=O)O)c3ccccc23)C(=O)N(C)[C@@H](CCCC)C(=O)N(C)[C@@H](CCCC)C(=O)N[C@@H](CCC(=O)O)C(=O)N1)C(=O)O [INT130AJ] ({CH2CO}-Y[Pip]NP[Dap]L[Hyp]W[Dab][Trp(1-CH2COOH)][NMeNle][NMeNle]ECG[Pra]-OH; thioether N-14)

— patent US10633419B2, “Immunomodulators” (BRISTOL-MYERS SQUIBB COMPANY, priority 2014, dated 2020)
